The text below walks through data of PMC3547328 (Chemical communications (Cambridge, England), 2013).

Data set [1] in a line: Fluorescence lifetime measurements. It is filed as physicochemical. Conditions: free and peptide incorporated forms.
The nature of data set [2]: Absorption and fluorescence. It is filed as physicochemical.
The nature of data set [3]: Collisional quenching experiments on NAAzAP with free amino acids and imidazole. The format is physicochemical.
A short description of data set [4]: Fluorescence spectra of NAAzAP in different solvents. The settings on record: upon lowering solvent polarity, λex 342 nm. It is filed as physicochemical.
The conditions of data set [5]: typical range; depends on solvent exposure and quenching; cited from earlier work.
The next data set has as its system CaM. The settings on record: cited from earlier work.

Consider `N[C@@H](Cc1ccc2cccccc1-2)C(=O)O` [AzAla, β-(1-Azulenyl)-L-Alanine], for which the fluorescence decay result in data set [1] is “simple monoexponential fluorescence decay”. Also, the extinction coefficient in data set [2] (S2-S0 transition) was ~ 4200 cm^−1M^−1. For the same molecule, the quantum yield result in data set [2] (relative to tryptophan) is reported as “comparable to those of tryptophan”. Further, the apparent emission intensity entry in data set [2] (relative to tryptophan, narrower profile of the azulene emission) is on record as “nearly the same apparent emission intensity”.
As to `CCCNC(=O)C(Cc1ccc2cccccc1-2)NC(C)=O` (centres unmarked) [NAAzAP, N-Acetyl-(AzulylAlanine)-propylamide], the fluorescence quenching result is “quenched” in data set [3] (quencher: free methionine); “quenched” in data set [3] (quencher: imidazole); “not by tyrosine or tryptophan” in data set [3] (quencher: tryptophan, same conditions); “not by tyrosine or tryptophan” in data set [3] (quencher: tyrosine, same conditions). In data set [4], the “red shift of fluorescence spectra” value was 6 nm.
Regarding `N[C@@H](Cc1c[nH]c2ccccc12)C(=O)O` [Tryptophan], in data set [5], the “apparent Trp quantum yield (Φ)” value is on record as 0.35 to 0.01.
Take “Melittin: Melittin has strong affinity for CaM”: the “affinity for CaM” value in the data set on CaM is recorded as “strong affinity for CaM”.
